The record followed here is US9873680B2 (Gilead Sciences, Inc., priority 2014, dated 2018).

The test system of one series is HIV-IIIb. As to the kind of experiment: Test A: Antiviral Assay in MT4 Cells. The series is classed as cell-based, HIV-1. In short, it runs like this: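 Readout was CellTiter-Glo luminescence after 10 min room-temperature lysis, taken 5 days after plating at 37 °C. The 2000 MT-4 cells per well, mixed 1 h beforehand with HIV-IIIb (m.o.i. 0.003), went straight onto the diluted compound.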

A short description of series [1]: Test B: Cytotoxicity Assay. As to conditions: human, uninfected MT-4 cells, CellTiter-Glo. The series is classed as cell-based. How it is done: Test B: Cytotoxicity Assay Compound cytotoxicity and the corresponding CC50 values was determined using the same protocol as described in the antiviral assay (Test A) except that uninfected cells were used.
A general note: ATP-based viability assays read luminescence as a measure of living cells.

Where [2] appears, read: Human immunodeficiency virus 1, MT4, 120 h, 0.2 μM drug concentration, MT-4 cells infected with HIV-IIIb, 5 days, values normalized to 100%, average over time, read-out: % inhibition at 0.2 μM (percent inhibition of virus-induced cell killing).

Structures are written as SMILES. Read-outs that look alike come from different tables or passages of the source.

Usually inhibition stands for the change of the read-out against control, counted positive when it falls. By CC50 is commonly meant the concentration that lowers cell viability or growth by half.

As to `Cn1nc(NS(C)(=O)=O)c2c(Cl)ccc(-c3ccc(C#C[C@]4(C)CNCCO4)nc3[C@H](Cc3cc(F)cc(F)c3)NC(=O)Cn3nc(C#N)c4c3C(F)(F)[C@@H]3C[C@H]43)c21` [Compound 88L, N—((S)-1-(3-(4-chloro-1-methyl-3-(methylsulfonamido)-1H-indazol-7-yl)-6-(((R)-2-methylmorpholin-2-yl)ethynyl)pyridin-2-yl)-2-(3,5-difluorophenyl)ethyl)-2-((3bS,4aR)-3-cyano-5,5-difluoro-3b,4,4a,5-tetrahydro-1H-cyclopropa[3,4]cyclopenta[1,2-c]pyrazol-1-yl)acetamide], the inhibition at 0.2 µM in the series on HIV-IIIb (setting [2]) came out at 97%. Moreover, in series [1], the CC50 at 5 days is 5.79 µM.
Take `Cc1nccn1C(C)(C)C#Cc1ccc(-c2ccc(Cl)c3c(NS(C)(=O)=O)nn(C)c23)c([C@H](Cc2cc(F)cc(F)c2)NC(=O)Cn2nc(C(F)F)c3c2C(F)(F)[C@@H]2C[C@H]32)n1` [Compound 89B]: in the series with HIV-IIIb (setting [2]), the inhibition at 0.2 µM worked out at 87%. This compound registered a CC50 at 5 days in series [1] of 8.31 µM.
The corresponding values for `Cc1nccn1C(C)(C)C#Cc1ccc(-c2ccc(Cl)c3c(NS(C)(=O)=O)nn(C)c23)c([C@H](Cc2cc(F)cc(F)c2)NC(=O)Cn2nc(C(F)(F)F)c3c2C(F)(F)[C@@H]2C[C@H]32)n1` [Compound 90, N—((S)-1-(3-(4-chloro-1-methyl-3-(methylsulfonamido)-1H-indazol-7-yl)-6-(3-methyl-3-(2-methyl-1H-imidazol-1-yl)but-1-yn-1-yl)pyridin-2-yl)-2-(3,5-difluorophenyl)ethyl)-2-((3bS,4aR)-5,5-difluoro-3-(trifluoromethyl)-3b,4,4a,5-tetrahydro-1H-cyclopropa[3,4]cyclopenta[1,2-c]pyrazol-1-yl)acetamide] are 98% and 3.04 µM.
The corresponding values for `Cn1nc(NS(C)(=O)=O)c2c(Cl)ccc(-c3ccc(C#CC(C)(C)c4ncc[nH]4)nc3[C@H](Cc3cc(F)cc(F)c3)NC(=O)Cn3nc(C(F)F)c4c3C(F)(F)[C@@H]3C[C@H]43)c21` [Compound 91F, N—((S)-1-(6-(3-(1H-imidazol-2-yl)-3-methylbut-1-yn-1-yl)-3-(4-chloro-1-methyl-3-(methylsulfonamido)-1H-indazol-7-yl)pyridin-2-yl)-2-(3,5-difluorophenyl)ethyl)-2-((3bS,4aR)-3-(difluoromethyl)-5,5-difluoro-3b,4,4a,5-tetrahydro-1H-cyclopropa[3,4]cyclopenta[1,2-c]pyrazol-1-yl)acetamide] are 98% and 14.6 µM.
The corresponding values for `Cn1ccnc1C(C)(C)C#Cc1ccc(-c2ccc(Cl)c3c(NS(C)(=O)=O)nn(C)c23)c([C@H](Cc2cc(F)cc(F)c2)NC(=O)Cn2nc(C(F)F)c3c2C(F)(F)[C@@H]2C[C@H]32)n1` [Compound 92B, N—((S)-1-(3-(4-chloro-1-methyl-3-(methylsulfonamido)-1H-indazol-7-yl)-6-(3-methyl-3-(1-methyl-1H-imidazol-2-yl)but-1-yn-1-yl)pyridin-2-yl)-2-(3,5-difluorophenyl)ethyl)-2-((3bS,4aR)-3-(difluoromethyl)-5,5-difluoro-3b,4,4a,5-tetrahydro-1H-cyclopropa[3,4]cyclopenta[1,2-c]pyrazol-1-yl)acetamide] are 100% and 25.9 µM.
Regarding `Cn1nc(NS(C)(=O)=O)c2c(Cl)ccc(-c3cc(-c4cnn(C5COC5)c4)cnc3[C@H](Cc3cc(F)cc(F)c3)NC(=O)Cn3nc(C(F)F)c4c3C(F)(F)[C@@H]3C[C@H]43)c21` [Compound 93D, N—((S)-1-(3-(4-chloro-1-methyl-3-(methylsulfonamido)-1H-indazol-7-yl)-5-(1-(oxetan-3-yl)-1H-pyrazol-4-yl)pyridin-2-yl)-2-(3,5-difluorophenyl)ethyl)-2-((3bS,4aR)-3-(difluoromethyl)-5,5-difluoro-3b,4,4a,5-tetrahydro-1H-cyclopropa[3,4]cyclopenta[1,2-c]pyrazol-1-yl)acetamide], in the series with HIV-IIIb (setting [2]), the inhibition at 0.2 µM amounted to 93%. Moreover, in series [1], the midpoint of cytotoxicity, the CC50 at 5 days, lay at 18.3 µM.
Taken in the same sequence, the figures for `Cn1nc(NS(C)(=O)=O)c2c(Cl)ccc(-c3ccc(C#CC4(CO)CC4)nc3[C@H](Cc3cc(F)cc(F)c3)NC(=O)Cn3nc(C(F)F)c4c3C(F)(F)[C@@H]3C[C@H]43)c21` [Compound 94B, N—((S)-1-(3-(4-chloro-1-methyl-3-(methylsulfonamido)-1H-indazol-7-yl)-6-((1-(hydroxymethyl)cyclopropyl)ethynyl)pyridin-2-yl)-2-(3,5-difluorophenyl)ethyl)-2-((3bS,4aR)-3-(difluoromethyl)-5,5-difluoro-3b,4,4a,5-tetrahydro-1H-cyclopropa[3,4]cyclopenta[1,2-c]pyrazol-1-yl)acetamide] were 91% and 12.4 µM.
As to `Cn1nc(NS(C)(=O)=O)c2c(Cl)ccc(-c3ccc(C#CC4CC4)nc3[C@H](Cc3cc(F)cc(F)c3)NC(=O)Cn3nc(C(F)F)c4c3C(F)(F)[C@@H]3C[C@H]43)c21` [Compound 96, N—((S)-1-(3-(4-chloro-1-methyl-3-(methylsulfonamido)-1H-indazol-7-yl)-6-(cyclopropylethynyl)pyridin-2-yl)-2-(3,5-difluorophenyl)ethyl)-2-((3bS,4aR)-3-(difluoromethyl)-5,5-difluoro-3b,4,4a,5-tetrahydro-1H-cyclopropa[3,4]cyclopenta[1,2-c]pyrazol-1-yl)acetamide], the inhibition at 0.2 µM in the series with HIV-IIIb (Human immunodeficiency virus 1, IIIB, MT4, 0.2 μM drug concentration, comparison with previously published compounds, read-out: Response at 0.2 μM (percent inhibition of virus-induced cell killing)) was determined as 82%; in the series with HIV-IIIb (setting [2]), 82%. Also, the inhibition at 2 µM in the series on HIV-IIIb (Human immunodeficiency virus 1, IIIB, MT4, 2 μM drug concentration, comparison with previously published compounds, read-out: Response at 2 μM (percent inhibition of virus-induced cell killing)) was found to be 82%. This compound also showed a CC50 at 5 days in series [1] of 20.1 µM.
Consider `Cn1nc(NS(C)(=O)=O)c2c(Cl)ccc(-c3ccc(C#C[C@@H]4COC(=O)N4)nc3[C@H](Cc3cc(F)cc(F)c3)NC(=O)Cn3nc(C(F)F)c4c3C(F)(F)[C@@H]3C[C@H]43)c21` [Compound 97C, N—((S)-1-(3-(4-chloro-1-methyl-3-(methylsulfonamido)-1H-indazol-7-yl)-6-(((R)-2-oxooxazolidin-4-yl)ethynyl)pyridin-2-yl)-2-(3,5-difluorophenyl)ethyl)-2-((3bS,4aR)-3-(difluoromethyl)-5,5-difluoro-3b,4,4a,5-tetrahydro-1H-cyclopropa[3,4]cyclopenta[1,2-c]pyrazol-1-yl)acetamide], for which the inhibition at 0.2 µM with HIV-IIIb (setting [2]) came out at 89%. The cytotoxic concentration (CC50) at 5 days in series [1] turned out to be 15.2 µM.
On to `Cn1nc(NS(C)(=O)=O)c2c(Cl)ccc(-c3ccc(C#CC(C)(C)n4cn[nH]c4=O)nc3[C@H](Cc3cc(F)cc(F)c3)NC(=O)Cn3nc(C(F)F)c4c3C(F)(F)[C@@H]3C[C@H]43)c21` [Compound 98D, N—((S)-1-(3-(4-chloro-1-methyl-3-(methylsulfonamido)-1H-indazol-7-yl)-6-(3-methyl-3-(5-oxo-1H-1,2,4-triazol-4(5H)-yl)but-1-yn-1-yl)pyridin-2-yl)-2-(3,5-difluorophenyl)ethyl)-2-((3bS,4aR)-3-(difluoromethyl)-5,5-difluoro-3b,4,4a,5-tetrahydro-1H-cyclopropa[3,4]cyclopenta[1,2-c]pyrazol-1-yl)acetamide], for which the inhibition at 0.2 µM in the series with HIV-IIIb (setting [2]) came out at 94%. Besides, the CC50 at 5 days in series [1] turned out to be 10.4 µM.
With `Cn1nc(NS(C)(=O)=O)c2c(Cl)ccc(-c3cc(N)c(C#CC4(O)CC(F)(F)C4)nc3[C@H](Cc3cc(F)cc(F)c3)NC(=O)Cn3nc(C(F)(F)F)c4c3C(F)(F)[C@@H]3C[C@H]43)c21` [Compound 100, N—((S)-1-(5-amino-3-(4-chloro-1-methyl-3-(methylsulfonamido)-1H-indazol-7-yl)-6-((3,3-difluoro-1-hydroxycyclobutyl)ethynyl)pyridin-2-yl)-2-(3,5-difluorophenyl)ethyl)-2-((3bS,4aR)-5,5-difluoro-3-(trifluoromethyl)-3b,4,4a,5-tetrahydro-1H-cyclopropa[3,4]cyclopenta[1,2-c]pyrazol-1-yl)acetamide], in the series on HIV-IIIb (Human immunodeficiency virus 1, IIIB, MT4, 120 h, read-out: % inhibition at 0.2 μM (percent inhibition of virus-induced cell killing)), the inhibition at 0.2 µM turned out to be 87%. In series [1], this compound gave a CC50 at 5 days of 8.2 µM.
For the compound `Cn1nc(NS(C)(=O)=O)c2c(Cl)ccc(-c3ccc(C#CC4(O)CC(F)(F)C4)nc3[C@H](Cc3cccc(F)c3)NC(=O)Cn3nc(C(F)F)c4c3C(F)(F)[C@@H]3C[C@H]43)c21` [Compound 101H, N—((S)-1-(3-(4-chloro-1-methyl-3-(methylsulfonamido)-1H-indazol-7-yl)-6-((3,3-difluoro-1-hydroxycyclobutyl)ethynyl)pyridin-2-yl)-2-(3-fluorophenyl)ethyl)-2-((3bS,4aR)-3-(difluoromethyl)-5,5-difluoro-3b,4,4a,5-tetrahydro-1H-cyclopropa[3,4]cyclopenta[1,2-c]pyrazol-1-yl)acetamide], the inhibition at 0.2 µM in the series with HIV-IIIb (setting [2]) came to 91%. The compound further yielded a CC50 at 5 days in series [1] of 9.1 µM.
Regarding `Cn1nc(NS(C)(=O)=O)c2c(Cl)ccc(-c3ccc(C#CC4(O)CC(F)(F)C4)nc3[C@H](Cc3cccc(F)c3)NC(=O)Cn3nc(C(F)(F)F)c4c3C(F)(F)[C@@H]3C[C@H]43)c21` [Compound 102, N—((S)-1-(3-(4-chloro-1-methyl-3-(methylsulfonamido)-1H-indazol-7-yl)-6-((3,3-difluoro-1-hydroxycyclobutyl)ethynyl)pyridin-2-yl)-2-(3-fluorophenyl)ethyl)-2-((3bS,4aR)-5,5-difluoro-3-(trifluoromethyl)-3b,4,4a,5-tetrahydro-1H-cyclopropa[3,4]cyclopenta[1,2-c]pyrazol-1-yl)acetamide], the inhibition at 0.2 µM in the series with HIV-IIIb (setting [2]) worked out at 88%. The same compound showed a cytotoxic concentration (CC50) at 5 days in series [1] of 7.17 µM.
